{"source": "the supplement of paper PMC10307832", "experiment_in_all_cases": "relative viability (nuclei count vs DMSO), 5 days (fraction); higher = more cells survive", "key": {"NCI-H1395": {"test_system": "NCI-H1395", "method_in_brief": "(§1)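 A single step with final 0.05% Triton X-100, 1% formaldehyde and 1 ug/ml Hoechst fixed the cells and stained nuclei 5 days after treatment. Lung cancer cell lines in 1536-well plates had been treated by pin tool the day after seeding with one drug alone or a fixed anchor-drug dose plus five library-drug doses (not always all listed) in √10 steps, and nuclei were counted on 4× images. Relative viability is the ratio of nuclei in treated wells to nuclei in vehicle wells, taken as the median of duplicate plates.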"}, "NCI-H358": {"test_system": "NCI-H358", "method_in_brief": "as §1"}, "NCI-H1563": {"test_system": "NCI-H1563", "method_in_brief": "as §1"}, "CAL-12T": {"test_system": "CAL-12T", "method_in_brief": "as §1"}, "NCI-H1792": {"test_system": "NCI-H1792", "method_in_brief": "as §1"}, "NCI-H2085": {"test_system": "NCI-H2085", "method_in_brief": "as §1"}, "NCI-H2228": {"test_system": "NCI-H2228", "method_in_brief": "as §1"}, "NCI-H838": {"test_system": "NCI-H838", "method_in_brief": "as §1"}, "UMC-11": {"test_system": "UMC-11", "method_in_brief": "as §1"}, "NCI-H1666": {"test_system": "NCI-H1666", "method_in_brief": "as §1"}, "PC-14": {"test_system": "PC-14", "method_in_brief": "as §1"}}, "data": [{"smiles": "COCC1(CO)C(=O)C2CCN1CC2", "note": "(centres undefined) [PRIMA-1MET] + Nc1nc2[nH]cc(CCc3ccc(C(=O)N[C@@H](CCC(=O)O)C(=O)O)cc3)c2c(=O)[nH]1 [Pemetrexed] (partner 0.2 µM)", "values": [{"measurement": "relative viability", "setting": "NCI-H1395; first compound 0.2 µM", "result": 0.842}, {"measurement": "relative viability", "setting": "NCI-H1395; first compound 2 µM", "result": 0.771}, {"measurement": "relative viability", "setting": "NCI-H1395; first compound 6.325 µM", "result": 0.881}, {"measurement": "relative viability", "setting": "NCI-H1395; first compound 20 µM", "result": 0.154}, {"measurement": "relative viability", "setting": "NCI-H358; first compound 0.2 µM", "result": 0.175}, {"measurement": "relative viability", "setting": "NCI-H358; first compound 0.6325 µM", "result": 0.159}, {"measurement": "relative viability", "setting": "NCI-H358; first compound 2 µM", "result": 0.165}, {"measurement": "relative viability", "setting": "NCI-H358; first compound 6.325 µM", "result": 0.164}, {"measurement": "relative viability", "setting": "NCI-H358; first compound 20 µM", "result": 0.198}, {"measurement": "relative viability", "setting": "NCI-H1563; first compound 0.2 µM", "result": 0.882}, {"measurement": "relative viability", "setting": "NCI-H1563; first compound 0.6325 µM", "result": 0.935}, {"measurement": "relative viability", "setting": "NCI-H1563; first compound 6.325 µM", "result": 0.77}, {"measurement": "relative viability", "setting": "NCI-H1563; first compound 20 µM", "result": 0.887}, {"measurement": "relative viability", "setting": "CAL-12T; first compound 0.2 µM", "result": 1.18}, {"measurement": "relative viability", "setting": "CAL-12T; first compound 0.6325 µM", "result": 1.19}, {"measurement": "relative viability", "setting": "CAL-12T; first compound 2 µM", "result": 1.19}, {"measurement": "relative viability", "setting": "CAL-12T; first compound 6.325 µM", "result": 1.36}, {"measurement": "relative viability", "setting": "CAL-12T; first compound 20 µM", "result": 0.13}, {"measurement": "relative viability", "setting": "NCI-H1792; first compound 0.2 µM", "result": 0.713}, {"measurement": "relative viability", "setting": "NCI-H1792; first compound 6.325 µM", "result": 0.947}, {"measurement": "relative viability", "setting": "NCI-H1792; first compound 20 µM", "result": 0.676}, {"measurement": "relative viability", "setting": "NCI-H2085; first compound 0.2 µM", "result": 0.936}, {"measurement": "relative viability", "setting": "NCI-H2085; first compound 0.6325 µM", "result": 0.925}, {"measurement": "relative viability", "setting": "NCI-H2085; first compound 2 µM", "result": 0.549}, {"measurement": "relative viability", "setting": "NCI-H2085; first compound 6.325 µM", "result": 0.862}, {"measurement": "relative viability", "setting": "NCI-H2085; first compound 20 µM", "result": 0.165}, {"measurement": "relative viability", "setting": "NCI-H2228; first compound 0.2 µM", "result": 0.351}, {"measurement": "relative viability", "setting": "NCI-H2228; first compound 0.6325 µM", "result": 0.332}, {"measurement": "relative viability", "setting": "NCI-H2228; first compound 2 µM", "result": 0.3}, {"measurement": "relative viability", "setting": "NCI-H2228; first compound 6.325 µM", "result": 0.305}, {"measurement": "relative viability", "setting": "NCI-H2228; first compound 20 µM", "result": 0.0521}, {"measurement": "relative viability", "setting": "NCI-H838; first compound 0.2 µM", "result": 0.247}, {"measurement": "relative viability", "setting": "NCI-H838; first compound 0.6325 µM", "result": 0.249}, {"measurement": "relative viability", "setting": "NCI-H838; first compound 2 µM", "result": 0.261}, {"measurement": "relative viability", "setting": "NCI-H838; first compound 6.325 µM", "result": 0.264}, {"measurement": "relative viability", "setting": "NCI-H838; first compound 20 µM", "result": 0.174}, {"measurement": "relative viability", "setting": "UMC-11; first compound 0.2 µM", "result": 0.866}, {"measurement": "relative viability", "setting": "UMC-11; first compound 0.6325 µM", "result": 0.693}, {"measurement": "relative viability", "setting": "UMC-11; first compound 2 µM", "result": 0.836}, {"measurement": "relative viability", "setting": "UMC-11; first compound 6.325 µM", "result": 0.768}, {"measurement": "relative viability", "setting": "UMC-11; first compound 20 µM", "result": 0.801}, {"measurement": "relative viability", "setting": "NCI-H1666; first compound 0.2 µM", "result": 0.949}, {"measurement": "relative viability", "setting": "NCI-H1666; first compound 0.6325 µM", "result": 0.824}, {"measurement": "relative viability", "setting": "NCI-H1666; first compound 2 µM", "result": 0.742}, {"measurement": "relative viability", "setting": "NCI-H1666; first compound 6.325 µM", "result": 0.793}, {"measurement": "relative viability", "setting": "NCI-H1666; first compound 20 µM", "result": 0.814}, {"measurement": "relative viability", "setting": "PC-14; first compound 0.2 µM", "result": 0.124}, {"measurement": "relative viability", "setting": "PC-14; first compound 0.6325 µM", "result": 0.148}, {"measurement": "relative viability", "setting": "PC-14; first compound 2 µM", "result": 0.114}]}]}
